Laboratory results reported in US9283196B1, “Cycloalkyl-diamines for CNS disorders” (MediSynergics, LLC, priority 2013, dated 2016).

Experiments:
[1] = biological target: Sigma-1; assay: Sigma-1 Ki determination by NIMH PDSP; assay type: binding
Description: (§1) The compounds from the above Examples were tested for activity vs. kappa opioid receptors (KOR) and for Sigma-1 activity. Ki determinations were generously provided by the National Institute of Mental Health's Psychoactive Drug Screening Program (PDSP), Contract # HHSN-271-2013-00017-C (NIMH PDSP). The NIMH PDSP is Directed by Bryan L. Roth MD, PhD at the University of North Carolina at Chapel Hill and Project Officer Jamie Driscoll at NIMH, Bethesda Md. U.S.A. Procedures employed by the PDSP are described in the NIMH PDSP Assay Protocol Book, Version II.

[2] = biological target: kappa opioid receptors (KOR) (Homo sapiens, UniProt P41145); assay: kappa opioid receptor (KOR) Ki determination by NIMH PDSP; assay type: binding
Description: as §1

Sequence of kappa opioid receptors (KOR) (P41145 whole entry): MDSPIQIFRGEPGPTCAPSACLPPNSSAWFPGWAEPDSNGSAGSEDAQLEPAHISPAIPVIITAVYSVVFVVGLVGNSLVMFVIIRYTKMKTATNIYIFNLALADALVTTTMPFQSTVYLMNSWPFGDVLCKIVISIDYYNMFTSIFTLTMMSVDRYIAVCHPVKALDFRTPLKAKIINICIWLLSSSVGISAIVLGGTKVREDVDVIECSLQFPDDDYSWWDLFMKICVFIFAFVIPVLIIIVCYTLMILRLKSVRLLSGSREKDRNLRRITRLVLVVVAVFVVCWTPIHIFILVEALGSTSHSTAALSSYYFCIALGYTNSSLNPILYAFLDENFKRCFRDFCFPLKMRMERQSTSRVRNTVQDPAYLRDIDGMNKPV

SMILES | Ki [1] [µM] | Ki [2] [µM]
CN[C@@]1(c2ccccc2Cl)CCCC[C@H]1NCCCn1ccnc1 (relative stereo) [Example 12b, Cis-1-(2-chlorophenyl)-N^2-(3-(1-imidazolyl)-propyl)-N^1-methylcyclohexane-1,2-diamine] | 0.231 | > 1
CN[C@]1(c2ccccc2Cl)CCCC[C@H]1NCCCc1ccccc1 (relative stereo) [Example 15a, Trans-1-(2-chlorophenyl)-N^2-(3-phenylpropyl)-N^1-methylcyclohexane-1,2-diamine] | 2.26 | 0.526
CN[C@@]1(c2ccccc2Cl)CCCC[C@H]1NCCCc1ccccc1 (relative stereo) [Example 15b, Cis-1-(2-chlorophenyl)-N^2-(3-phenylpropyl)-N^1-methylcyclohexane-1,2-diamine] | 0.177 | 0.139
CN[C@@]1(c2ccccc2Cl)CCCC[C@H]1NCCCN1CCOCC1 (relative stereo) [Example 16b] | 0.017 | 0.798
CN[C@]1(c2ccccc2Cl)CCCC[C@H]1NCCCN1CCN(C)CC1 (relative stereo) [Example 17a] | 0.019 | > 1
CN[C@@]1(c2ccccc2Cl)CCCC[C@H]1NCCCN1CCN(C)CC1 (relative stereo) [Example 17b] | 0.072 | > 1
CN[C@@]1(c2ccccc2Cl)CCCC[C@H]1NC1CCCCC1 (relative stereo) [Example 18b, Cis-1-(2-chlorophenyl)-N^2-cyclohexyl-N^1-methylcyclohexane-1,2-diamine] | – | 0.608
